Among the data in patent US8822469B2, “Pyrrolo[2,3-B]pyrazines useful as inhibitors of ATR kinase” (Vertex Pharmaceuticals Incorporated, priority 2011, dated 2014) are Ki values, retold here.

A value given as a limit tells only on which side of the number the result lay.

The assay addresses T1, full-length ATR (Homo sapiens, UniProt Q13535).
T1 construct: Assays were carried out at 25° C. in the presence of 5 nM full-length ATR
Nature of the assay: ATR Inhibition Assay (radioactive-phosphate incorporation). Type of assay: biochemical. Conditions: Ki(app); 5 nM full-length ATR, 10 μM [γ-33P]ATP, 800 μM target peptide, 25° C. As for the experimental part:
Compounds were screened for their ability to inhibit ATR kinase using a radioactive-phosphate incorporation assay. Assays were carried out in a mixture of 50 mM Tris/HCl (pH 7.5), 10 mM MgCl2 and 1 mM DTT. Final substrate concentrations were 10 μM [γ-33P]ATP (3mCi 33P ATP/mmol ATP, Perkin Elmer) and 800 μM target peptide (ASELPASQPQPFSAKKK).
Assays were carried out at 25° C. in the presence of 5 nM full-length ATR. An assay stock buffer solution was prepared containing all of the reagents listed above, with the exception of ATP and the test compound of interest. 13.5 μL of the stock solution was placed in a 96 well plate followed by addition of 2 μL of DMSO stock containing serial dilutions of the test compound (typically starting from a final concentration of 15 μM with 3-fold serial dilutions) in duplicate (final DMSO concentration 7%). The plate was pre-incubated for 10 minutes at 25° C. and the reaction initiated by addition of 15 μL [γ-33P]ATP (final concentration 10 μM).
The reaction was stopped after […] by the addition of 30 μL 0.1M phosphoric acid containing 2 mM ATP. A multiscreen phosphocellulose filter 96-well plate (Millipore, Cat no. MAPHN0B50) was pretreated with 100 μL 0.2M phosphoric acid prior to the addition of 45 μL of the stopped assay mixture. The plate was washed with 5×200 μL 0.2M phosphoric acid. After drying, 100 μL Optiphase ‘SuperMix’ liquid scintillation cocktail (Perkin Elmer) was added to the well prior to scintillation counting (1450 Microbeta Liquid Scintillation Counter, Wallac).
After removing mean background values for all of the data points, Ki(app) data were calculated from non-linear regression analysis of the initial rate data using the Prism software package (GraphPad Prism version 3.0cx for Macintosh, GraphPad Software, San Diego Calif., USA).

T1 sequence (Q13535 whole entry): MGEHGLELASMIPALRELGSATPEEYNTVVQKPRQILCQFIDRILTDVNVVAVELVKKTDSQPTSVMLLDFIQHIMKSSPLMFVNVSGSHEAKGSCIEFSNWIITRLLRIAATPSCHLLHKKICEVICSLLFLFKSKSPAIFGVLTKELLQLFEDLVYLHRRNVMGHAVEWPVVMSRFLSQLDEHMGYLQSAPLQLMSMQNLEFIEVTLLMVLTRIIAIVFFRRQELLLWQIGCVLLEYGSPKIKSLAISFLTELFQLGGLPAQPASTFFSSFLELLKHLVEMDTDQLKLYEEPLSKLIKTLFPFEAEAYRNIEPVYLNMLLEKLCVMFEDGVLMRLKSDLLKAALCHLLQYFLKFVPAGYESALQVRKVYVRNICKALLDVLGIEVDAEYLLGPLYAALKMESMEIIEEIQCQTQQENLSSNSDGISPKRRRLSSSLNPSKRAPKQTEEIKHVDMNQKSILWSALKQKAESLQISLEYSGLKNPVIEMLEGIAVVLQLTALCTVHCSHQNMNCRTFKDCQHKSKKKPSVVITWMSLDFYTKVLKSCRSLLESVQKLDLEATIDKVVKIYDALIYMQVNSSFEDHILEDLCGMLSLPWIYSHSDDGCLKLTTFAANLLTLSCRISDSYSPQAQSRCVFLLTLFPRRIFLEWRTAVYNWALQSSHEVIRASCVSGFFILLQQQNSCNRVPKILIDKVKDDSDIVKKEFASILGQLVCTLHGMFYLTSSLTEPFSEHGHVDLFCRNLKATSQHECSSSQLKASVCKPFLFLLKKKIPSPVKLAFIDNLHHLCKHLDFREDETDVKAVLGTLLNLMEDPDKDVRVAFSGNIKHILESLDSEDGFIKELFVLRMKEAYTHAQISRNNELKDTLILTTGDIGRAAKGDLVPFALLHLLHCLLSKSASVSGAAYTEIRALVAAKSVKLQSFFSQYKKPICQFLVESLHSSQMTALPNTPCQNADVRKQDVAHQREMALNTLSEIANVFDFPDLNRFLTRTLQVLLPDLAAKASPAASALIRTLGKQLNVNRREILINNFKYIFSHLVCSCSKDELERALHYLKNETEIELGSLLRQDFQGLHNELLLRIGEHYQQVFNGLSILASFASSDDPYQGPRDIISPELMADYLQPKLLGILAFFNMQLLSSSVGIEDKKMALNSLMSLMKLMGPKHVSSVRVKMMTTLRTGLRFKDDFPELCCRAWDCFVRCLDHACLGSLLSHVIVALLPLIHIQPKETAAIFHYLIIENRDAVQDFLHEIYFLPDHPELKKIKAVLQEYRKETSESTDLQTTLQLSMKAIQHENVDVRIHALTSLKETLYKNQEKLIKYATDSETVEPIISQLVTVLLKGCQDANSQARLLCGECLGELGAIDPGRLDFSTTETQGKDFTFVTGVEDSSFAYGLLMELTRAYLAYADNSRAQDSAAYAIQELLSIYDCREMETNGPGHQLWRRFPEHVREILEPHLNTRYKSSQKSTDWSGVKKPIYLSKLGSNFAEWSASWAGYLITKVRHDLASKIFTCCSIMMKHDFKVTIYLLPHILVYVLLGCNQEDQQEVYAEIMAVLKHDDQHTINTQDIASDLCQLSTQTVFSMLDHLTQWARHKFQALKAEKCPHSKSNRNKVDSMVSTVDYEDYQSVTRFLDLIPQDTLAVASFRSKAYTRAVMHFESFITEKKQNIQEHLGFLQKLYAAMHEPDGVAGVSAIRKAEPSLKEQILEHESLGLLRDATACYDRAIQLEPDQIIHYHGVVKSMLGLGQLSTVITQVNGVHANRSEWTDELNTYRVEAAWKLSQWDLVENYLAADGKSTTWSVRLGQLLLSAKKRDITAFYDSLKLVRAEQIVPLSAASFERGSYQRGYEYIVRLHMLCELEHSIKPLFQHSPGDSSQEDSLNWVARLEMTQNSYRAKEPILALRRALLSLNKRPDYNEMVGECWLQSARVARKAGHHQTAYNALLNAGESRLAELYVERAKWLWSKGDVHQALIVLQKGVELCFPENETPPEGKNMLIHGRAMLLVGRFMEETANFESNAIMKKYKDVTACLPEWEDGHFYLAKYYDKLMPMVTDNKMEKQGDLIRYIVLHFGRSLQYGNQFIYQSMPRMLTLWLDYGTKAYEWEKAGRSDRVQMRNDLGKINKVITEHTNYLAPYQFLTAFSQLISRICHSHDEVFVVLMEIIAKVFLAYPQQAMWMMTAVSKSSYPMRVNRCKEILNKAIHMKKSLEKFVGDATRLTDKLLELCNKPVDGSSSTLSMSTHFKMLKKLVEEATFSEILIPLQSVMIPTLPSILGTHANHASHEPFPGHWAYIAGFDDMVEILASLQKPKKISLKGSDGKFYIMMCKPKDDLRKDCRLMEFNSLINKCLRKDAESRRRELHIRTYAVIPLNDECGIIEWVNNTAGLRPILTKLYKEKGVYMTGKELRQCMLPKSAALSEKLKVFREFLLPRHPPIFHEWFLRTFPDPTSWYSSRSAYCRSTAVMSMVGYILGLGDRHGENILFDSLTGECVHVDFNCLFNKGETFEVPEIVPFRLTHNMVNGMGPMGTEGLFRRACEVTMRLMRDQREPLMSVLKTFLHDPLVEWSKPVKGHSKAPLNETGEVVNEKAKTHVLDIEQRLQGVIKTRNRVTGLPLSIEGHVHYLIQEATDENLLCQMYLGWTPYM

With `Cc1ccsc1C(=O)Nc1c[nH]c2ncc(-c3ccc(S(=O)(=O)C(C)C)cc3)nc12` [Compound I-32, N-[2-(4-isopropylsulfonylphenyl)-5H-pyrrolo[2,3-b]pyrazin-7-yl]-3-methyl-thiophene-2-carboxamide], the Ki was ≤ 10 nM.

`CC(C)S(=O)(=O)c1ccc(-c2cnc3[nH]cc(NC(=O)CC4CC4)c3n2)cc1` [Compound I-33, 2-cyclopropyl-N-[2-(4-isopropylsulfonylphenyl)-5H-pyrrolo[2,3-b]pyrazin-7-yl]acetamide]: the Ki fell in the range of 10 to 100 nM. The same measure for `CC(C)S(=O)(=O)c1ccc(-c2cnc3[nH]cc(NC(=O)c4cncs4)c3n2)cc1` [Compound I-34, N-[2-(4-isopropylsulfonylphenyl)-5H-pyrrolo[2,3-b]pyrazin-7-yl]thiazole-5-carboxamide]: 10 to 100 nM. Under `CC(C)S(=O)(=O)c1ccc(-c2cnc3[nH]cc(NC(=O)C4CCNCC4)c3n2)cc1` [Compound I-35, N-[2-(4-isopropylsulfonylphenyl)-5H-pyrrolo[2,3-b]pyrazin-7-yl]piperidine-4-carboxamide] stands 10 to 100 nM; under `CC(C)S(=O)(=O)c1ccc(-c2cnc3[nH]cc(NC(=O)C4CCOC4)c3n2)cc1` (stereo not drawn) [Compound I-36, N-[2-(4-isopropylsulfonylphenyl)-5H-pyrrolo[2,3-b]pyrazin-7-yl]tetrahydrofuran-3-carboxamide], 100 to 500 nM; under `CC(C)S(=O)(=O)c1ccc(-c2cnc3[nH]cc(NC(=O)CC#N)c3n2)cc1` [Compound I-37, 2-cyano-N-[2-(4-isopropylsulfonylphenyl)-5H-pyrrolo[2,3-b]pyrazin-7-yl]acetamide], 10 to 100 nM. Under `CC(C)S(=O)(=O)c1ccc(-c2cnc3[nH]cc(NC(=O)Cc4nnn[nH]4)c3n2)cc1` [Compound I-38, N-[2-(4-isopropylsulfonylphenyl)-5H-pyrrolo[2,3-b]pyrazin-7-yl]-2-(1H-tetrazol-5-yl)acetamide] stands 10 to 100 nM; under `CC(C)S(=O)(=O)c1ccc(-c2cnc3[nH]cc(NC(=O)COc4ccccc4)c3n2)cc1` [Compound I-39, N-[2-(4-isopropylsulfonylphenyl)-5H-pyrrolo[2,3-b]pyrazin-7-yl]-2-phenoxy-acetamide], 100 to 500 nM. As to `CC(C)S(=O)(=O)c1ccc(-c2cnc3[nH]cc(NC(=O)c4ccccn4)c3n2)cc1` [Compound I-40, N-[2-(4-isopropylsulfonylphenyl)-5H-pyrrolo[2,3-b]pyrazin-7-yl]pyridine-2-carboxamide], the Ki fell in the range of 10 to 100 nM. The same measure for `CC(C)S(=O)(=O)c1ccc(-c2cnc3[nH]cc(NC(=O)c4ccc(N5CC[C@@H](N)C5)cc4)c3n2)cc1` [Compound I-41, 4-[(3R)-3-aminopyrrolidin-1-yl]-N-[2-(4-isopropylsulfonylphenyl)-5H-pyrrolo[2,3-b]pyrazin-7-yl]benzamide]: ≤ 10 nM. Under `CC(C)S(=O)(=O)c1ccc(-c2cnc3[nH]cc(NC(=O)c4ccc(N5CCC[C@H](N)C5)cc4)c3n2)cc1` [Compound I-42, 4-[(3S)-3-amino-1-piperidyl]-N-[2-(4-isopropylsulfonylphenyl)-5H-pyrrolo[2,3-b]pyrazin-7-yl]benzamide] stands 10 to 100 nM. Under `CC(C)S(=O)(=O)c1ccc(-c2cnc3[nH]cc(NC(=O)Nc4ccccc4)c3n2)cc1` [Compound I-43, 1-[2-(4-isopropylsulfonylphenyl)-5H-pyrrolo[2,3-b]pyrazin-7-yl]-3-phenyl-urea] stands 10 to 100 nM.
